Measured values from patent publication US20260116868A1 (Arcus Biosciences, Inc., priority 2023, published 2026).

Each compound was assayed against T1, Cbl-b (Homo sapiens, UniProt Q13191) (assay: Cbl-b probe displacement HTRF binding assay). Conditions: 0.4 nM Cbl-b, 150 nM BODIPY probe.
T1 construct: biotin (biotinylated protein)
Experimental: The affinity with which compounds of the present disclosure bind to Cbl-b was assessed using probe displacement homologous time resolved fluorescence (HTRF) assays. The assays used a BODIPY™ conjugated probe (Example 54 from WO 2020264398) and biotinylated Cbl-b. The assays were performed in assay buffer consisting of 20 mM Hepes, 150 mM NaCl, 0.01% Triton X-100, 0.5 mM TCEP, 0.01% BSA. On the day of the assay, a 20 point, 1:2 master serial dilution of each compound was prepared in DMSO to span a final concentration range of […] to 0 nM. Two hundred nanoliters of diluted compound was added to each well of a 384-well plate. Fifteen microliters of biotinylated- Cbl-b resuspended in assay buffer were added to each well and the plate incubated for 60 minutes at room temperature prior to addition of 5 μL of BODIPY™ probe in assay buffer. Final assay conditions included 0.4 nM of Cbl-b and 150 nM of BODIPY™ probe. After a further 15 minutes of incubation at room temperature, 5 μl of Streptavidin-Terbium cryptate reagent at 5-fold final concentration was added to each well of the 384-well plate. Binding of a probe to Cbl-b results in an increase of HTRF signal. HTRF signal was measured by Envision plate reader, while competition of a compound of the present disclosure with probe results in a decrease of signal. Percentage maximum activity in each test well was calculated based on DMSO (maximum activity, 0% displacement) and no protein control wells (baseline activity, 100% displacement). Binding affinity was determined from a dose response curve fitted using a standard four parameter fit equation. See Table 7 for data for compounds (Cbl-b Binding (IC50)).

T1 sequence (Q13191 whole entry, species assumed): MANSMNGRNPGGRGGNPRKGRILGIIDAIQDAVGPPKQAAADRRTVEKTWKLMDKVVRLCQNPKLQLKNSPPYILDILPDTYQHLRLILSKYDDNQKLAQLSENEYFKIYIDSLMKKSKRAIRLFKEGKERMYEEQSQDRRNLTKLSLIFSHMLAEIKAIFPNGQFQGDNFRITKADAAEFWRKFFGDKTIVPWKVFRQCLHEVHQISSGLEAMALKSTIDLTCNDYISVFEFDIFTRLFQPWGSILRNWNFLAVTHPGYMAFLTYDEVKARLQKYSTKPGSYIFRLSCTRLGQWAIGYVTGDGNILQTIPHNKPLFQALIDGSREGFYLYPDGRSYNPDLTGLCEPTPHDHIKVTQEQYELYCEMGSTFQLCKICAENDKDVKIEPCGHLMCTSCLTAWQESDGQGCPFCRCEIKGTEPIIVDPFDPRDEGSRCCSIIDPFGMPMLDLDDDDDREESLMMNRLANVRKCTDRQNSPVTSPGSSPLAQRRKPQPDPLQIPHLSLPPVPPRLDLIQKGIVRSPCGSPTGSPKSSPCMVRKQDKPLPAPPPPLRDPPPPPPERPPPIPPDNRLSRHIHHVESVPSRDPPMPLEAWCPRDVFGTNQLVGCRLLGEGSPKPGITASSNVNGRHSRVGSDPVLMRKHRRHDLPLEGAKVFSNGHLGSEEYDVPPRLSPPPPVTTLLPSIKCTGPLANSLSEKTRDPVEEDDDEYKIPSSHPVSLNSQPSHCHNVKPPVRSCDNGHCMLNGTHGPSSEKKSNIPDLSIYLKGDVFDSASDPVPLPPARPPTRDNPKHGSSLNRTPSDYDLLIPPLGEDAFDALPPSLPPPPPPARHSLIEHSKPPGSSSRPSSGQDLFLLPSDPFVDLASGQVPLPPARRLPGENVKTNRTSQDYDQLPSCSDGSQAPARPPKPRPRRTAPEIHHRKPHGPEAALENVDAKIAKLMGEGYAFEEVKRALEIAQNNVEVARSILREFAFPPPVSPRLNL

IC50, < 100 nM:
O=C(Nc1cc(-c2ccc(Cl)cc2C(=O)N2CC(F)(F)C2)cc(C2CC2)n1)c1cc(CNC[C@@H]2COCCO2)cn(C2CC2)c1=O [Example 133, N-(4-{4-chloro-2-[(3,3-difluoro-1-azetidinyl)carbonyl]phenyl}-6-cyclopropyl-2-pyridyl)-1-cyclopropyl-5-[({[(R)-1,4-dioxan-2-yl]methyl}amino)methyl]-2-oxo-1,2-dihydronicotinamide]
CO[C@@H](C)CNCc1cc(C(=O)Nc2cc(-c3ccc(OC(F)F)cc3C(=O)N3CC(F)(F)C3)cc(Cl)n2)c(=O)n(C2CC2)c1 [Example 149, N-(6-chloro-4-{2-[(3,3-difluoro-1-azetidinyl)carbonyl]-4-difluoromethoxyphenyl}-2-pyridyl)-1-cyclopropyl-5-{[(S)-2-methoxypropylamino]methyl}-2-oxo-1,2-dihydronicotinamide]
N#Cc1cc(F)c(-c2cc(NC(=O)c3cc(CNC[C@@H]4CCCO4)cn(C4CC4)c3=O)nc(C3CC3)c2)c(C(=O)N2CC(F)(F)C2)c1 [Example 231]
C[C@H](N[C@@H](C)C1CC1)c1cc(C(=O)Nc2cc(-c3ccc(C#N)cc3C(=O)N3CC(F)(F)C3)cc(C3CC3)n2)c(=O)n(C2CC2)c1 [Example 328]
CO[C@@H](C)CNCc1cc(C(=O)Nc2cc(-c3ccc(Cl)cc3C(=O)N3CC(F)(F)C3)cc(NC(C)C)n2)c(=O)n(C2CC2)c1 [Example 217]
COc1ccc(-c2cc(NC(=O)c3cc(CN[C@@H](C)C4CCC4)cn(C4CC4)c3=O)nc(C3CC3)c2)c(C(=O)N2CC(F)(F)C2)c1 [Example 295]
CCNc1cc(-c2ccc(Cl)cc2C(=O)N2CC(F)C2)cc(NC(=O)c2cc(CNC[C@H](C)OC)cn(C3CC3)c2=O)n1 [Example 245]
CC(C)Oc1cc(-c2ccc(C#N)cc2C(=O)N2CC(F)C2)cc(NC(=O)c2cc(CNC[C@@H]3CCCO3)cn(C)c2=O)n1 [Example 279]
CO[C@@H](C)CNCc1cc(C(=O)Nc2cc(-c3ccc(Cl)cc3C(=O)N3CC(F)(F)C3)cc(C3CC3)n2)c(=O)n(C2CC2)c1 [Example 353]
CO[C@@H](C)CNCc1cc(C(=O)Nc2cc(-c3c(F)cc(C#N)cc3C(=O)N3CC(F)(F)C3)cc(OC(C)C)n2)c(=O)n(C)c1 [Example 235]
Cn1cc(CNC[C@@H]2CCCO2)cc(C(=O)Nc2cc(-c3c(F)cc(C#N)cc3C(=O)N3CC(F)(F)C3)cc(C3CC3)n2)c1=O [Example 241]
COc1ccc(-c2cc(NC(=O)c3cc(CNC[C@@H]4CCCO4)cn(C4CC4)c3=O)nc(OC(C)C)c2)c(C(=O)N2CC(F)(F)C2)c1 [Example 311]
CCOc1cc(-c2ccc(Cl)cc2C(=O)N2CC(F)C2)cc(NC(=O)c2cc(CNC[C@H](C)OC)cn(C3CC3)c2=O)n1 [Example 255]
CCOc1cc(-c2c(F)cc(Cl)cc2C(=O)N2CC(F)(F)C2)cc(NC(=O)c2cc(CN[C@@H](C)C3CCC3)cn(C3CC3)c2=O)n1 [Example 207]
CC(C)Oc1cc(-c2ccc(OC(F)F)cc2C(=O)N2CC(F)(F)C2)cc(NC(=O)c2cc(CN[C@@H](C)C3CC3)cn(C)c2=O)n1 [Example 115, N-(4-{2-[(3,3-difluoro-1-azetidinyl)carbonyl]-4-difluoromethoxyphenyl}-6-isopropoxy-2-pyridyl)-5-{[(S)-1-cyclopropylethylamino]methyl}-1-methyl-2-oxo-1,2-dihydronicotinamide]
CO[C@@H](C)CNCc1cc(C(=O)Nc2cc(-c3ccc(C#N)cc3C(=O)N3CC(F)(F)C3)cc(N(C)C)n2)c(=O)n(C2CC2)c1 [Example 191]
CO[C@@H](C)CNCc1cc(C(=O)Nc2cc(-c3ccc(C#N)cc3C(=O)N3CC(F)(F)C3)cc(OC(C)C)n2)c(=O)n(C2CC2)c1 [Example 339]
CCOc1cc(-c2ccc(C#N)cc2C(=O)N2CC(F)(F)C2)cc(NC(=O)c2cc(CNC[C@@H]3CCCO3)cn(C)c2=O)n1 [Example 183]
CCOc1cc(-c2ccc(OC(F)F)cc2C(=O)N2CC(F)C2)cc(NC(=O)c2cc(CNC[C@@H]3CCCO3)cn(C)c2=O)n1 [Example 282]
Cc1ccc(-c2cc(NC(=O)c3cc(CNC[C@@H]4CCCO4)cn(C)c3=O)nc(OC(C)C)c2)c(C(=O)N2CC(F)C2)c1 [Example 320]
CC(C)Nc1cc(-c2c(F)cc(Cl)cc2C(=O)N2CC(F)(F)C2)cc(NC(=O)c2cc(CN[C@@H](C)C3CC3)cn(C3CC3)c2=O)n1 [Example 204]
COCCNCc1cc(C(=O)Nc2cc(-c3ccc(C#N)cc3C(=O)N3CC(F)(F)C3)cc(C3CC3)n2)c(=O)n(CC(F)(F)F)c1 [Example 194]
CC(C)Oc1cc(-c2ccc(OC(F)F)cc2C(=O)N2CC(F)C2)cc(NC(=O)c2cc(CNC[C@@H]3CCCO3)cn(C3CC3)c2=O)n1 [Example 280]
CC(C)Oc1cc(-c2ccc(C#N)cc2C(=O)N2CC(F)(F)C2)cc(NC(=O)c2cc(CNC[C@@H]3CCCCO3)cn(C3CC3)c2=O)n1 [Example 392]
CO[C@@H](C)CNCc1cc(C(=O)Nc2cc(-c3ccc(Cl)cc3C(=O)N3CC4(COC4)C3)cc(C3CC3)n2)c(=O)n(C2CC2)c1 [Example 160, N-(4-{4-Chloro-2-[(2-oxa-6-aza-6-spiro[3.3]heptyl)carbonyl]phenyl}-6-cyclopropyl-2-pyridyl)-1-cyclopropyl-5-{[(S)-2-methoxypropylamino]methyl}-2-oxo-1,2-dihydronicotinamide]
COCCNCc1cc(C(=O)Nc2cc(-c3ccc(C#N)cc3C(=O)N3CC(F)(F)C3)cc(C3CC3)n2)c(=O)n(C)c1 [Example 187]
C[C@H](N[C@H](C)c1cc(C(=O)Nc2cc(-c3ccc(C#N)cc3C(=O)N3CC(F)(F)C3)cc(C3CC3)n2)c(=O)n(C2CC2)c1)C1CC1 [Example 323]
C[C@H](NCc1cc(C(=O)Nc2cc(-c3cc(F)c(Cl)cc3C(=O)N3CC(F)(F)C3)cc(C3CC3)n2)c(=O)n(C2CC2)c1)C1CCC1 [Example 216]
COc1ccc(-c2cc(NC(=O)c3cc(CNC[C@H](C)OC)cn(C4CC4)c3=O)nc(C3CC3)c2)c(C(=O)N2CC(F)(F)C2)c1 [Example 150, N-(6-Cyclopropyl-4-{2-[(3,3-difluoro-1-azetidinyl)carbonyl]-4-methoxyphenyl}-2-pyridyl)-1-cyclopropyl-5-{[(S)-2-methoxypropylamino]methyl}-2-oxo-1,2-dihydronicotinamide]
N#Cc1ccc(-c2cc(NC(=O)c3cc(CNCCCF)cn(C4CC4)c3=O)nc(C3CC3)c2)c(C(=O)N2CC(F)(F)C2)c1 [Example 375]
CC(C)Oc1cc(-c2ccc(F)cc2C(=O)N2CC(F)(F)C2)cc(NC(=O)c2cc(CNC[C@@H]3CCCO3)cn(C3CC3)c2=O)n1 [Example 138, N-(4-{2-[(3,3-difluoro-1-azetidinyl)carbonyl]-4-fluorophenyl}-6-isopropoxy-2-pyridyl)-1-cyclopropyl-2-oxo-5-[({[(S)-perhydro-2-furyl]methyl}amino)methyl]-1,2-dihydronicotinamide]
COc1ccc(-c2cc(NC(=O)c3cc(CNC[C@H](C)OC)cn(C4CC4)c3=O)nc(C3CC3)c2)c(C(=O)N2CC(F)C2)c1 [Example 270]
CCOc1cc(-c2ccc(OC(F)F)cc2C(=O)N2CC(F)(F)C2)cc(NC(=O)c2cc(CNC[C@H](C)OC)cn(C3CC3)c2=O)n1 [Example 331]
C[C@H](NCc1cc(C(=O)Nc2cc(-c3ccc(C#N)cc3C(=O)N3CC(F)(F)C3)cc(C3CC3)n2)c(=O)n(C2CC2)c1)C1CC1 [Example 365]
CC(C)Oc1cc(-c2ccc(OC(F)F)cc2C(=O)N2CC(F)(F)C2)cc(NC(=O)c2cc(CN[C@@H](C)C3CCC3)cn(C)c2=O)n1 [Example 112]
CCOc1cc(-c2ccc(F)cc2C(=O)N2CC(F)(F)C2)cc(NC(=O)c2cc(CNC[C@H](C)OC)cn(C3CC3)c2=O)n1 [Example 373]
CCOc1cc(-c2ccc(OC(F)F)cc2C(=O)N2CC(F)C2)cc(NC(=O)c2cc(CN[C@@H](C)C3CCC3)cn(C)c2=O)n1 [Example 257]
CO[C@@H](C)CNCc1cc(C(=O)Nc2cc(-c3ccc(C#N)cc3C(=O)N3CC(F)(F)C3)cc(C3CC3)c2)c(=O)n(C2CC2)c1 [Example 393]
COc1ccc(-c2cc(NC(=O)c3cc(CNC[C@H](C)OC)cn(C4CC4)c3=O)nc(OCC(F)F)c2)c(C(=O)N2CC(F)(F)C2)c1 [Example 348]
